Experimental data taken from patent publication EP0908457B1, “3-(1,2-benzisothiazol- and isoxazol-5-Y1)-2,4(1H,3H)-pyrimidinedione or thione and 3-(1,2-benzisothiazol- and isoxazol-5-y1)-4(3H)-pyrimidinone or thione herbicidal agents” (BASF AKTIENGESELLSCHAFT, priority 1997, dated 1999).

Columns and labels:
[1] = tested on: Echinochloa oryzoides (Ard.) Fritsch.; assay: Preemergence weed control under flooded paddy conditions, ECHORC (Watergrass (Calif.)); assay type: in vivo; conditions: preemergence, flooded paddy, rated three to four weeks after treatment; as to herbicidal effect rating, ECHORC: meaning of each grade not given here
Sagittaria pygmaea, L. = assay: Preemergence weed control under flooded paddy conditions, SAGPY (Arrowhead (Pygmaea)); assay type: in vivo; conditions: preemergence, flooded paddy, rated three to four weeks after treatment; as to herbicidal effect rating, SAGPY: meaning of each grade not given here
[2] = tested on: Oryza sativa, (L.) Tebonnet; assay: Rice tolerance to post-transplant applications under flooded paddy conditions (Example 187), ORYSAT (Rice, Tebonnet); conditions: rated three to four weeks after treatment
[3] = tested on: Cyperus serotinus, Rottb.; assay: Preemergence weed control under flooded paddy conditions, CYPSE (Flatsedge); assay type: in vivo; conditions: preemergence, rated three to four weeks after treatment; as to herbicidal effect rating, CYPSE: meaning of each grade not given here
Cyperus iria = assay: Preemergence weed control under flooded paddy conditions, CYPIR (Rice Flatsedge); assay type: in vivo; conditions: preemergence, flooded paddy, rated three to four weeks after treatment; as to herbicidal effect rating, CYPIR: meaning of each grade not given here
[4] = tested on: Monochoria vaginalis, Presl.; assay: Preemergence weed control under flooded paddy conditions, MOOVA (Monochoria); assay type: in vivo; conditions: preemergence, flooded paddy, rated three to four weeks after treatment; as to herbicidal effect rating, MOOVA: meaning of each grade not given here

CCc1ccc(OC(C)C(=O)OC)c(-c2nsc3ccc(-n4c(=O)cc(C(F)(F)F)n(C)c4=O)cc23)c1 (stereo not shown) [Example 28, Methyl 2-{2-{5-[3,6-dihydro-3-methyl-2,6-dioxo-4-(trifluoromethyl)-1(2H)-pyrimidinyl]-1,2-benzisothiazol-3-yl}-4-ethylphenoxy}propionate]
herbicidal effect rating, ECHORC ([1]; 0.0313 kg/ha): 8.0 | herbicidal effect rating, ECHORC ([1]; 0.0625 kg/ha): 9.0 | herbicidal effect rating, ECHORC ([1]; 0.1250 kg/ha): 9.0 | herbicidal effect rating, ECHORC ([1]; 0.2500 kg/ha): 9.0 | herbicidal effect rating, SAGPY (Sagittaria pygmaea, L.; 0.0313 kg/ha): 0.0 | herbicidal effect rating, SAGPY (Sagittaria pygmaea, L.; 0.0625 kg/ha): 2.0 | herbicidal effect rating, SAGPY (Sagittaria pygmaea, L.; 0.1250 kg/ha): 4.0 | herbicidal effect rating, SAGPY (Sagittaria pygmaea, L.; 0.2500 kg/ha): 8.0 | herbicidal effect rating, ORYSAT (rice tolerance) ([2]; 0.0313 kg/ha): 3.0 | herbicidal effect rating, ORYSAT (rice tolerance) ([2]; 0.0625 kg/ha): 4.0 | herbicidal effect rating, ORYSAT (rice tolerance) ([2]; 0.1250 kg/ha): 7.0 | herbicidal effect rating, ORYSAT (rice tolerance) ([2]; 0.2500 kg/ha): 9.0 | herbicidal effect rating, CYPSE ([3]; 0.0313 kg/ha): 0.0 | herbicidal effect rating, CYPSE ([3]; 0.0625 kg/ha): 0.0 | herbicidal effect rating, CYPSE ([3]; 0.1250 kg/ha): 0.0 | herbicidal effect rating, CYPSE ([3]; 0.2500 kg/ha): 4.0 | herbicidal effect rating, CYPIR (Cyperus iria; 0.0313 kg/ha): 2.0 | herbicidal effect rating, CYPIR (Cyperus iria; 0.0625 kg/ha): 4.0 | herbicidal effect rating, CYPIR (Cyperus iria; 0.1250 kg/ha): 6.0 | herbicidal effect rating, CYPIR (Cyperus iria; 0.2500 kg/ha): 9.0 | herbicidal effect rating, MOOVA ([4]; 0.0313 kg/ha): 8.0 | herbicidal effect rating, MOOVA ([4]; 0.0625 kg/ha): 9.0 | herbicidal effect rating, MOOVA ([4]; 0.1250 kg/ha): 9.0 | herbicidal effect rating, MOOVA ([4]; 0.2500 kg/ha): 9.0

Cc1ccc(OCC(=O)NS(=O)(=O)c2sc(C)nc2C)c(-c2nsc3ccc(-n4c(=O)cc(C(F)(F)F)n(C)c4=O)cc23)c1 [Example 288, Acetamide, 2-{{2-{5-[3,6-dihydro-3-methyl-2,6-dioxo-4-(trifluoromethyl)-1(2H)-pyrimidinyl]-1,2-benzisothiazol-3-yl}-p-tolyl}oxy}-N-[(2,4-dimethylthiazol-5-yl)sulfonyl]-]
ECHORC herbicidal effect rating ([1]; Rate 0.0320 kg/ha): 0.0 | ECHORC herbicidal effect rating ([1]; Rate 0.0620 kg/ha): 0.0 | ECHORC herbicidal effect rating ([1]; Rate 0.1250 kg/ha): 4.0 | ECHORC herbicidal effect rating ([1]; Rate 0.2500 kg/ha): 5.0 | SAGPY herbicidal effect rating (Sagittaria pygmaea, L.; Rate 0.0320 kg/ha): 0.0 | SAGPY herbicidal effect rating (Sagittaria pygmaea, L.; Rate 0.0620 kg/ha): 0.0 | SAGPY herbicidal effect rating (Sagittaria pygmaea, L.; Rate 0.1250 kg/ha): 0.0 | SAGPY herbicidal effect rating (Sagittaria pygmaea, L.; Rate 0.2500 kg/ha): 0.0 | ORYSAT herbicidal effect rating ([2]; Rate 0.0320 kg/ha): 0.0 | ORYSAT herbicidal effect rating ([2]; Rate 0.0620 kg/ha): 0.0 | ORYSAT herbicidal effect rating ([2]; Rate 0.1250 kg/ha): 1.0 | ORYSAT herbicidal effect rating ([2]; Rate 0.2500 kg/ha): 2.0 | CYPSE herbicidal effect rating ([3]; Rate 0.0320 kg/ha): 0.0 | CYPSE herbicidal effect rating ([3]; Rate 0.0620 kg/ha): 0.0 | CYPSE herbicidal effect rating ([3]; Rate 0.1250 kg/ha): 0.0 | CYPSE herbicidal effect rating ([3]; Rate 0.2500 kg/ha): 0.0 | CYPIR herbicidal effect rating (Cyperus iria; Rate 0.0320 kg/ha): 0.0 | CYPIR herbicidal effect rating (Cyperus iria; Rate 0.0620 kg/ha): 0.0 | CYPIR herbicidal effect rating (Cyperus iria; Rate 0.1250 kg/ha): 4.0 | CYPIR herbicidal effect rating (Cyperus iria; Rate 0.2500 kg/ha): 6.0 | MOOVA herbicidal effect rating ([4]; Rate 0.0320 kg/ha): 0.0 | MOOVA herbicidal effect rating ([4]; Rate 0.0620 kg/ha): 0.0 | MOOVA herbicidal effect rating ([4]; Rate 0.1250 kg/ha): 3.0 | MOOVA herbicidal effect rating ([4]; Rate 0.2500 kg/ha): 6.0

Cc1cccc(COCc2nsc3ccc(-n4c(=O)cc(C(F)(F)F)n(C)c4=O)cc23)c1 [Example 587, 2,4(1H,3H)-Pyrimidinedione, 1-methyl-3-{3-{[(m-methylbenzyl)oxy]methyl}-1,2-benzisothiazol-5-yl}-6-(trifluoromethyl)-]
herbicidal effect rating, ECHORC ([1]; Rate 0.0320 kg/ha): 7.0 | herbicidal effect rating, ECHORC ([1]; Rate 0.0620 kg/ha): 7.0 | herbicidal effect rating, ECHORC ([1]; Rate 0.1250 kg/ha): 9.0 | herbicidal effect rating, ECHORC ([1]; Rate 0.2500 kg/ha): 9.0 | herbicidal effect rating, SAGPY (Sagittaria pygmaea, L.; Rate 0.0320 kg/ha): 0.0 | herbicidal effect rating, SAGPY (Sagittaria pygmaea, L.; Rate 0.0620 kg/ha): 2.0 | herbicidal effect rating, SAGPY (Sagittaria pygmaea, L.; Rate 0.1250 kg/ha): 5.0 | herbicidal effect rating, SAGPY (Sagittaria pygmaea, L.; Rate 0.2500 kg/ha): 5.0 | herbicidal effect rating ORYSAT ([2]; Rate 0.0320 kg/ha): 4.0 | herbicidal effect rating ORYSAT ([2]; Rate 0.0620 kg/ha): 4.0 | herbicidal effect rating ORYSAT ([2]; Rate 0.1250 kg/ha): 4.0 | herbicidal effect rating ORYSAT ([2]; Rate 0.2500 kg/ha): 5.0 | herbicidal effect rating, CYPSE ([3]; Rate 0.0320 kg/ha): 0.0 | herbicidal effect rating, CYPSE ([3]; Rate 0.1250 kg/ha): 0.0 | herbicidal effect rating, CYPIR (Cyperus iria; Rate 0.0320 kg/ha): 4.0 | herbicidal effect rating, CYPIR (Cyperus iria; Rate 0.0620 kg/ha): 8.0 | herbicidal effect rating, CYPIR (Cyperus iria; Rate 0.1250 kg/ha): 9.0 | herbicidal effect rating, CYPIR (Cyperus iria; Rate 0.2500 kg/ha): 9.0 | herbicidal effect rating, MOOVA ([4]; Rate 0.0320 kg/ha): 5.0 | herbicidal effect rating, MOOVA ([4]; Rate 0.0620 kg/ha): 5.0 | herbicidal effect rating, MOOVA ([4]; Rate 0.1250 kg/ha): 9.0 | herbicidal effect rating, MOOVA ([4]; Rate 0.2500 kg/ha): 9.0
